# In patent publication US11510932B2, “Prophylactic and therapeutic treatment of alzheimer's disease using phytic acid and phytate to reduce amyloid beta plaque and tau protein” (priority 2009, dated 2022):
# Legend:
# [1] = tested on: NGF-differentiated PC12 cells; conditions: 10 μM; cited from earlier work
# MC65 cells [2] = assay: APP CTF-induced neurotoxicity (cell viability) in MC65 cells; conditions: for attenuation of APP CTF-induced neurotoxicity (active/inactive): in vitro challenge test
# MC65 cells [3] = assay: Oxidative stress associated with APP CTF expression, hydrogen peroxide in cell media; assay type: cell-based, human; conditions: 100 μM
# Protocol: In vitro studies were conducted in MC65 cells, an established human neuroblastoma line that conditionally expresses the first 17 amino-terminal residues and the 99 carboxy-terminal residues of amyloid precursor protein (APP CTF). Detectable APP CTF expression occurs within 3-4 h of tetracycline withdrawal, appearance of aggregates and initial losses of culture viability occurs at about 2 days and near complete death occurs by approximately 3 days.
# [4] = tested on: Alzheimer's transgenic mice; assay: Toxicity and weight loss in treated Alzheimer's transgenic mice; assay type: in vivo; conditions: 2% phytic acid in drinking water, about six months
# Protocol: (§1) Applicant also submits Table 1 and FIGS. 4-6 showing data from in vivo testing of the subject matter compounds in Alzheimer's transgenic mice. These Alzheimer's transgenic mice are genetically altered to produce Abeta plaque, and were treated for about six months with compounds of the Applicant's invention. Namely, the drinking water was infused with phytic acid so that the final concentration of phytic acid in the drinking water was 2%.
# Abeta plaque = Abeta plaque in brains of Alzheimer's transgenic mice versus control vehicle; assay type: in vivo; conditions: 2% phytic acid, all three cases (FIGS. 4-6)
# Protocol: as §1
# After six months, the animals were put down for autopsy and necropsy so that Abeta plaque in the brains was assayed, separated and weighed.
# FIGS. 4-6 are graphs comparing the tested compound in vivo with the control vehicle.
# [5] = humans, ingestion of large doses; cited from earlier work
# [6] = tested on: transgenic mouse model of Alzheimer's Disease; conditions: cited from earlier work
# amyloid-B peptide (AB) = conditions: transgenic Alzheimer Disease mouse studies; cited from earlier work
Compound,rescue from Ab-induced neurotoxicity [1],attenuation of APP CTF-induced neurotoxicity (active/inactive) (MC65 cells [2]),oxidative stress associated with APP CTF expression (hydrogen peroxide in the cell media) (MC65 cells [3]),toxicity in the treated group [4],weight loss in the treated group [4],Abeta plaque compared to the control vehicle (Abeta plaque),physiological discomfort or symptoms of toxicological action [5],"EC50 (MC65 cells [2]; Homo sapiens, MC65, read-out: EC50 concentration, protection from APP CTF-induced death) [µM]","protection from cytotoxicity (MC65 cells [2]; MC65 cells, concentrations of 200 μM and higher)",prevention and reversal of Alzheimer's Disease [6],aggregation of amyloid-B peptide (AB) (amyloid-B peptide (AB))
"O[C@H]1[C@H](O)[C@@H](O)[C@H](O)[C@@H](O)[C@H]1O [myo inositol, reference compound]",rescues,inactive,–,–,–,–,–,–,–,–,–
"O=P(O)(O)O[C@H]1[C@H](OP(=O)(O)O)[C@@H](OP(=O)(O)O)[C@H](OP(=O)(O)O)[C@@H](OP(=O)(O)O)[C@H]1OP(=O)(O)O [phytic acid, myo-inositol-hexakis (dihydrogen phosphate)]",–,active,suppressed oxidative stress,no toxicity,nor any significant weight loss,reduction in Abeta plaque,elicits no physiological discomfort or symptoms of any toxicological action,~100,near complete protection,–,–
O[C@H]1[C@H](O)[C@@H](O)[C@H](O)[C@@H](O)[C@@H]1O [scyllo inositol],rescues,inactive,–,–,–,–,–,–,–,prevent and reverse Alzheimer's Disease,inhibits and blocks the aggregation
